# Test results taken from US20150051558A1, “COMPOSITION AND METHOD FOR CORNEAL PROLIFERATION” (UNIVERSITY OF CENTRAL FLORIDA RESEARCH FOUNDATION, INC., priority 2012, published 2015).
# “Also recorded” adds a separate entry of the source.
# Tests used:
# rat cornea [1] = assay: Experiment 2: BrdU staining of cornea after MS-818 ophthalmic drops; format: in vivo
# Protocol: (§1) According to another example similar to experiment 1, surgeries were performed to remove the left lachrymal gland from sixteen rats. MS-818 was then administered via ophthalmic drop to both eyes of twelve of the rats divided into three dosage groups, 100 μg/ml, 300 μg/ml, and 1 mg/ml. The remaining four rats served as a control group, receiving drops of phosphate buffered saline. The compound was administered three times over a period of three days. BrdU was administered during this time via intra-peritoneal injection. Rats were euthanized seven days after the first compound administration and underwent perfusion. Eyes were sliced in twenty micron slices using a cryostat. The slices were mounted on glass slides. The slides were then stained with monoclonal mouse anti BrdU primary antibody to test for the incorporation of BrdU into nuclei. TRITC conjugated donkey anti mouse secondary antibody was used to detect the primary antibody. Slides were stained with DAPI to visualize the nuclei. Images were captured of the slices in 100× magnification under TRITC, DAPI and FITC fluorescence.
# rat cornea [2] = assay: Experiment 1: BrdU staining of cornea after MS-818 ophthalmic drops; format: in vivo
# Protocol: as §1, with “Surgeries were” for “According to another example similar to experiment 1, surgeries were”, “groups, 1 mg/ml, 3 mg/ml,” for “groups, 100 μg/ml, 300 μg/ml,”, “and 10” for “and 1”
compound,measurement,setting,value
"CN1Cc2nc(N3CCCCC3)ncc2C1=O.O=C(O)/C=C\C(=O)O [MS-818, 2-piperadino-6-methyl-5-oxo-5,6-dihydro-(7H) pyrrole-[3,4-d]pyrimidine maleate]",cell proliferation (BrdU staining) in cornea vs control animal,"rat cornea [1]; eye drop 100 μg/ml, 300 μg/ml, 1 mg/ml, three times over three days, non surgical eye, FIG. 4",significant increase in cell proliferation over the control animal
same,number of nuclei positive for BrdU per field of view in the cornea,"rat cornea [1]; eye drop, low, medium and high dose vs control, n=6, FIG. 5",significantly (p<0.05) higher than the control; also recorded: significant and dose dependent increase
same,proliferation in the non-injured eyes vs non-drug receiving control group,"rat cornea [2]; ophthalmic drops, three dosage groups, preliminary results",marked increase in proliferation
same,BrdU positive signaling within the cornea (cell proliferation),"rat cornea [2]; rat, eye drop, high dosage (1 mg/ml), three times over three days, euthanized seven days after first administration, non surgical eye, FIG. 1B vs control FIG. 1A",significantly increased BrdU positive signaling
